Measured values: ChEMBL document CHEMBL4879554, “Data for DCP probe GNE-2256” (2021)
Activity calls are given as the source filed them. The calls are words filed in the database; no cut-off is given here.

Assays:
[1] = target: Interleukin-1 receptor-associated kinase 4 (Homo sapiens, UniProt Q9NWZ3); test: NanoBRET assay (IRAK4, SGC Frankfurt)
[2] = target: RAC-beta serine/threonine-protein kinase (Homo sapiens) (UniProt P31751); test: AKT2 Kinase panel; conditions: Compound concentration 1.0 uM
[3] = target: NUAK family SNF1-like kinase 1 (Homo sapiens) (UniProt O60285); test: ARK5 Kinase panel; conditions: Compound concentration 1.0 uM
[4] = target: Tyrosine-protein kinase Blk (Homo sapiens) (UniProt P51451); test: Blk Kinase panel; conditions: Compound concentration 1.0 uM
Sequence of Tyrosine-protein kinase Blk (Homo sapiens) (P51451 2-505 limits assumed): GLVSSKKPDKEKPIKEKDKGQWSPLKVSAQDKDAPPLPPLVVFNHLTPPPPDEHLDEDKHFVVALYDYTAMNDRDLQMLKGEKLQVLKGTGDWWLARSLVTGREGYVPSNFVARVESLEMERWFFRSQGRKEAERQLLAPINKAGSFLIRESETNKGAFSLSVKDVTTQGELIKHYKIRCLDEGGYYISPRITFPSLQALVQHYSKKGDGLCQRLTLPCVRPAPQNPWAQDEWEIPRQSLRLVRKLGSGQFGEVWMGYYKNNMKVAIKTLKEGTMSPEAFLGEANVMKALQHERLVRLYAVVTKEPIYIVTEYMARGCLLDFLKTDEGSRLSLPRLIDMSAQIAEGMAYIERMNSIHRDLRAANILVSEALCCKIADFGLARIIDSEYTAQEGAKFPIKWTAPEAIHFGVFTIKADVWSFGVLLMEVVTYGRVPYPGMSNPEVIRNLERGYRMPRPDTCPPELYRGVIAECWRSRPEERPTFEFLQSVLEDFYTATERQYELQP

[5] = target: Calcium/calmodulin-dependent protein kinase kinase 2 (Homo sapiens) (UniProt Q96RR4); test: CAMKK2 Kinase panel; conditions: Compound concentration 1.0 uM
[6] = target: Casein kinase II subunit alpha (Homo sapiens) (UniProt P68400); test: CK2_alpha1 Kinase panel; conditions: Compound concentration 1.0 uM
[7] = target: Dual specificity protein kinase CLK1 (Homo sapiens) (UniProt P49759); test: CLK1 Kinase panel; conditions: Compound concentration 1.0 uM
[8] = target: Dual specificity protein kinase CLK2 (Homo sapiens) (UniProt P49760); test: CLK2 Kinase panel; conditions: Compound concentration 1.0 uM
[9] = target: Macrophage colony-stimulating factor 1 receptor (Homo sapiens) (UniProt P07333); test: CSF1R Kinase panel; conditions: Compound concentration 1.0 uM
[10] = target: Epithelial discoidin domain-containing receptor 1 (Homo sapiens) (UniProt Q08345); test: DDR1 Kinase panel; conditions: Compound concentration 1.0 uM
[11] = target: Dual specificity tyrosine-phosphorylation-regulated kinase 4 (Homo sapiens) (UniProt Q9NR20); test: DYRK4 Kinase panel; conditions: Compound concentration 1.0 uM
[12] = target: Ephrin type-A receptor 8 (Homo sapiens) (UniProt P29322); test: EphA8 Kinase panel; conditions: Compound concentration 1.0 uM
[13] = target: Ephrin type-B receptor 1 (Homo sapiens) (UniProt P54762); test: EphB1 Kinase panel; conditions: Compound concentration 1.0 uM
[14] = target: Ephrin type-B receptor 3 (Homo sapiens) (UniProt P54753); test: EphB3 Kinase panel; conditions: Compound concentration 1.0 uM
[15] = target: Vascular endothelial growth factor receptor 3 (Homo sapiens) (UniProt P35916); test: Flt4 Kinase panel; conditions: Compound concentration 1.0 uM
[16] = target: Tyrosine-protein kinase FRK (Homo sapiens) (UniProt P42685); test: Frk Kinase panel; conditions: Compound concentration 1.0 uM
Sequence of Tyrosine-protein kinase FRK (Homo sapiens) (P42685 whole entry): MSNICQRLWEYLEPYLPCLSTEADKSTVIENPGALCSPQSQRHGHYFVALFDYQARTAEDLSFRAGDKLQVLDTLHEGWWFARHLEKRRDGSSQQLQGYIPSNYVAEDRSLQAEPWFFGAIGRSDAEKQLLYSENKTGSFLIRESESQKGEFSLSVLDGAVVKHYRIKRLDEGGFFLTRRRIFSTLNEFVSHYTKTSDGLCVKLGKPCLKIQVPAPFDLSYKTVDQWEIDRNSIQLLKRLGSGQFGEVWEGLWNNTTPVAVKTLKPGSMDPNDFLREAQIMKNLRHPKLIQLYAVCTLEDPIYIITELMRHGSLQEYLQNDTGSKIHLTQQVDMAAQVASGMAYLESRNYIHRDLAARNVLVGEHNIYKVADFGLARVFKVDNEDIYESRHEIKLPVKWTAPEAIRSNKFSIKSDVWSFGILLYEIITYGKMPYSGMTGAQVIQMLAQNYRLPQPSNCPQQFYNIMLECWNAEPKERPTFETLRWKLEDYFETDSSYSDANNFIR

[17] = target: Glycogen synthase kinase-3 beta (Homo sapiens) (UniProt P49841); test: GSK3_beta Kinase panel; conditions: Compound concentration 1.0 uM
[18] = target: Homeodomain-interacting protein kinase 4 (Homo sapiens) (UniProt Q8NE63); test: HIPK4 Kinase panel; conditions: Compound concentration 1.0 uM
Sequence of Homeodomain-interacting protein kinase 4 (Homo sapiens) (Q8NE63 whole entry): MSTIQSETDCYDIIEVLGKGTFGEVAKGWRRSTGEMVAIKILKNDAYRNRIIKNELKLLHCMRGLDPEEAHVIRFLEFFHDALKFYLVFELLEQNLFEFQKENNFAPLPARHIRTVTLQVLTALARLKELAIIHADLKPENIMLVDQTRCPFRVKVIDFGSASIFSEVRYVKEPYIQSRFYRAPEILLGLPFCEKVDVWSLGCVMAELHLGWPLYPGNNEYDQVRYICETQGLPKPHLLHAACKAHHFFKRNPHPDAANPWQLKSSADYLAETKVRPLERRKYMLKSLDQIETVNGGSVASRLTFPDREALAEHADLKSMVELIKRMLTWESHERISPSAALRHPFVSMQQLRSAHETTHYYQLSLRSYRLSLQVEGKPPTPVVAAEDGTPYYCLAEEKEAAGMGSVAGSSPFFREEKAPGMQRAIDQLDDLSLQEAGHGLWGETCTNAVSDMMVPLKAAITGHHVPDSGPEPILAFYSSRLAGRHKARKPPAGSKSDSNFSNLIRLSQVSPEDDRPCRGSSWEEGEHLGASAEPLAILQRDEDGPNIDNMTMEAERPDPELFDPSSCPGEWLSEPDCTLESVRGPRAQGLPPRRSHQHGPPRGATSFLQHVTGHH

[19] = target: Megakaryocyte-associated tyrosine-protein kinase (Homo sapiens) (UniProt P42679); test: Hyl Kinase panel; conditions: Compound concentration 1.0 uM
[20] = target: Insulin receptor (Homo sapiens) (UniProt P06213); test: InsR Kinase panel; conditions: Compound concentration 1.0 uM
[21] = target: Mitogen-activated protein kinase 10 (Homo sapiens) (UniProt P53779); test: JNK3 Kinase panel; conditions: Compound concentration 1.0 uM
[22] = target: Mitogen-activated protein kinase kinase kinase kinase 5 (Homo sapiens) (UniProt Q9Y4K4); test: KHS1 Kinase panel; conditions: Compound concentration 1.0 uM
[23] = target: Mitogen-activated protein kinase kinase kinase kinase 4 (Homo sapiens, UniProt O95819); test: MAP4K4 Kinase panel
[24] = target: MAP kinase-activated protein kinase 2 (Homo sapiens) (UniProt P49137); test: MAPKAPK2 Kinase panel; conditions: Compound concentration 1.0 uM
[25] = target: Mitogen-activated protein kinase kinase kinase 10 (Homo sapiens) (UniProt Q02779); test: MLK2 Kinase panel; conditions: Compound concentration 1.0 uM
[26] = target: Muscle, skeletal receptor tyrosine-protein kinase (Homo sapiens) (UniProt O15146); test: MuSK Kinase panel; conditions: Compound concentration 1.0 uM
[27] = target: Serine/threonine-protein kinase PAK 1 (Homo sapiens) (UniProt Q13153); test: PAK1 Kinase panel; conditions: Compound concentration 1.0 uM
[28] = target: Phosphatidylinositol 4,5-bisphosphate 3-kinase catalytic subunit gamma isoform (Homo sapiens) (UniProt P48736); test: PI3KG Kinase panel; conditions: Compound concentration 1.0 uM
Sequence of Phosphatidylinositol 4,5-bisphosphate 3-kinase catalytic subunit gamma isoform (Homo sapiens) (P48736 whole entry, looked up, canonical isoform): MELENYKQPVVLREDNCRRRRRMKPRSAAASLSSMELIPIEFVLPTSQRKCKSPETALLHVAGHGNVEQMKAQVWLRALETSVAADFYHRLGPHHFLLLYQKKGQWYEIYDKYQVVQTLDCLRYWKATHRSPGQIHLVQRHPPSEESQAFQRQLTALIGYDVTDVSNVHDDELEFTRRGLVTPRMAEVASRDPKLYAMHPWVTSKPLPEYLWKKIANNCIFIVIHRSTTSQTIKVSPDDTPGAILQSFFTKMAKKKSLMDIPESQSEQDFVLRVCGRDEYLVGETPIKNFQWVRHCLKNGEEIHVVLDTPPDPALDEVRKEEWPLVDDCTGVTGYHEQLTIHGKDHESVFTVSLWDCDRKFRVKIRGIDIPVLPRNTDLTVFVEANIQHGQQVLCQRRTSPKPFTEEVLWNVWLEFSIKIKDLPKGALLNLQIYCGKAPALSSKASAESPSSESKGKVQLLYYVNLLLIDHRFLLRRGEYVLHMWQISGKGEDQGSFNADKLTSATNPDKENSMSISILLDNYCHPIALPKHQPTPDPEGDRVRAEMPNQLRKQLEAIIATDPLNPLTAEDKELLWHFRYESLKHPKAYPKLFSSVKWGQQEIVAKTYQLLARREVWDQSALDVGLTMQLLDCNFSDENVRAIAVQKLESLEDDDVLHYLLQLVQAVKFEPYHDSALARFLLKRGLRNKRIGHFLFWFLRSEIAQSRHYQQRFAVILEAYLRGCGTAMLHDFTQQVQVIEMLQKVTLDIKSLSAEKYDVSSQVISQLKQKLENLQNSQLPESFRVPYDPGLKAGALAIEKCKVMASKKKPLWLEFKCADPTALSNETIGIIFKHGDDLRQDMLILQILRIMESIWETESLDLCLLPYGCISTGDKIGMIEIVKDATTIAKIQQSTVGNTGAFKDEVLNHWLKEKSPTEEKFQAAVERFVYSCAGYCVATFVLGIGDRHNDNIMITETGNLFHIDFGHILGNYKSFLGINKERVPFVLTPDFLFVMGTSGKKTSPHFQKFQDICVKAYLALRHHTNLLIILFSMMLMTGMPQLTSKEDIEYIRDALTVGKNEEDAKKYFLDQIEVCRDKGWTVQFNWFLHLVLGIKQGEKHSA

[29] = target: Serine/threonine-protein kinase pim-1 (Homo sapiens) (UniProt P11309); test: PIM1 Kinase panel; conditions: Compound concentration 1.0 uM
[30] = target: Phosphorylase b kinase gamma catalytic chain, skeletal muscle/heart isoform (Homo sapiens) (UniProt Q16816); test: PhK_gamma1 Kinase panel; conditions: Compound concentration 1.0 uM
[31] = target: cAMP-dependent protein kinase catalytic subunit PRKX (Homo sapiens) (UniProt P51817); test: PrKX Kinase panel; conditions: Compound concentration 1.0 uM
[32] = target: Ribosomal protein S6 kinase alpha-2 (Homo sapiens) (UniProt Q15349); test: RSK3 Kinase panel; conditions: Compound concentration 1.0 uM
[33] = target: SRSF protein kinase 1 (Homo sapiens) (UniProt Q96SB4); test: SRPK1 Kinase panel; conditions: Compound concentration 1.0 uM
[34] = target: Activated CDC42 kinase 1 (Homo sapiens) (UniProt Q07912); test: TNK2 Kinase panel; conditions: Compound concentration 1.0 uM
[35] = target: High affinity nerve growth factor receptor (Homo sapiens, UniProt P04629); test: TrkA Kinase panel
[36] = target: Serine/threonine-protein kinase WNK2 (Homo sapiens) (UniProt Q9Y3S1); test: WNK2 Kinase panel; conditions: Compound concentration 1.0 uM
[37] = target: Tyrosine-protein kinase ZAP-70 (Homo sapiens) (UniProt P43403); test: ZAP-70 Kinase panel; conditions: Compound concentration 1.0 uM
Sequence of Tyrosine-protein kinase ZAP-70 (Homo sapiens) (P43403 whole entry): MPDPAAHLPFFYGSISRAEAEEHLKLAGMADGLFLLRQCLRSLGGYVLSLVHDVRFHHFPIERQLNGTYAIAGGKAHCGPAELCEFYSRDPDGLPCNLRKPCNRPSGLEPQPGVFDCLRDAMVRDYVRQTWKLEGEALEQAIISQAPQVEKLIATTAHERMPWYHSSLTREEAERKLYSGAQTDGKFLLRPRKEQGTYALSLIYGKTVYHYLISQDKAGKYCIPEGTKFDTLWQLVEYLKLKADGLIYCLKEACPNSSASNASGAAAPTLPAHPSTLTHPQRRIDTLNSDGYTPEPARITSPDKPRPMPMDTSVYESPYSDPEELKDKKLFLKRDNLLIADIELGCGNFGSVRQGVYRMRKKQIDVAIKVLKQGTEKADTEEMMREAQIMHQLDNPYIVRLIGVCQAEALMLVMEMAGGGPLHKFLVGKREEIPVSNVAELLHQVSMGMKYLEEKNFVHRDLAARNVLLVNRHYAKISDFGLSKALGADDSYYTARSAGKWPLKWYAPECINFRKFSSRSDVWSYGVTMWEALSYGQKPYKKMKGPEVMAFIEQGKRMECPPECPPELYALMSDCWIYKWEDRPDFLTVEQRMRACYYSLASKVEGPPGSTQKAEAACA

[38] = target: Eukaryotic elongation factor 2 kinase (Homo sapiens) (UniProt O00418); test: eEF_2K Kinase panel; conditions: Compound concentration 1.0 uM
[39] = target: Mitogen-activated protein kinase 14 (Homo sapiens) (UniProt Q16539); test: p38_alpha(direct) Kinase panel; conditions: Compound concentration 1.0 uM
Sequence of Mitogen-activated protein kinase 14 (Homo sapiens) (Q16539 whole entry): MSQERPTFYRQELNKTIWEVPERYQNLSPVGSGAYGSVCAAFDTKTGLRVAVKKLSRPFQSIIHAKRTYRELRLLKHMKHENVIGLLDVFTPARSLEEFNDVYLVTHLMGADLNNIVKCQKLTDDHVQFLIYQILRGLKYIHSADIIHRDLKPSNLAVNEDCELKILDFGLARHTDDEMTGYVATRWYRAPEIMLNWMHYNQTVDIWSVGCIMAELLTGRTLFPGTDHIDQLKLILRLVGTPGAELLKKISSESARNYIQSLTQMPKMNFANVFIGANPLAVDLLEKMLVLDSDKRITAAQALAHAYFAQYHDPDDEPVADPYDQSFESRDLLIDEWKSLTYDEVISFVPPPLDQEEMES

[40] = target: Mitogen-activated protein kinase 13 (Homo sapiens) (UniProt O15264); test: p38_delta Kinase panel; conditions: Compound concentration 1.0 uM
[41] = target: Ribosomal protein S6 kinase beta-1 (Homo sapiens) (UniProt P23443); test: p70S6K Kinase panel; conditions: Compound concentration 1.0 uM
[42] = target: 5-hydroxytryptamine receptor 2A (Homo sapiens) (UniProt P28223); conditions: Compound concentration 10.0 uM
[43] = target: 5-hydroxytryptamine receptor 2B (Homo sapiens, UniProt P41595); conditions: Compound concentration 10.0 uM
[44] = target: 5-hydroxytryptamine receptor 3A (Homo sapiens) (UniProt P46098); conditions: Compound concentration 10.0 uM
[45] = target: Histamine H2 receptor (Homo sapiens) (UniProt P25021); conditions: Compound concentration 10.0 uM
[46] = target: Histamine H4 receptor (Homo sapiens) (UniProt Q9H3N8); conditions: Compound concentration 10.0 uM
Sequence of Histamine H4 receptor (Homo sapiens) (Q9H3N8 whole entry): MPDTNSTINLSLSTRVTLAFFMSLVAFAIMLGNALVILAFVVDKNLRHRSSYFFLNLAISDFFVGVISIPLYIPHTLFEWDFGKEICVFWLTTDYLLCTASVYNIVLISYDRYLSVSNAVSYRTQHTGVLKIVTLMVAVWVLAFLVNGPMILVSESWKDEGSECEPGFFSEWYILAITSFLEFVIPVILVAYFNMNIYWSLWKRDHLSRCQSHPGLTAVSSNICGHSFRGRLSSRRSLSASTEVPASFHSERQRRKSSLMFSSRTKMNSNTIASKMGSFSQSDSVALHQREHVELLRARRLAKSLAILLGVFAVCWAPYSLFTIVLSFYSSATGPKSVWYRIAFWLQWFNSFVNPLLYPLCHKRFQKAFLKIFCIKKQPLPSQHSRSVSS

[47] = target: Alpha-1B adrenergic receptor (Homo sapiens) (UniProt P35368); conditions: Compound concentration 10.0 uM
[48] = target: Alpha-2A adrenergic receptor (Homo sapiens) (UniProt P08913); conditions: Compound concentration 10.0 uM
[49] = target: Alpha-2B adrenergic receptor (Homo sapiens) (UniProt P18089); conditions: Compound concentration 10.0 uM
[50] = target: Beta-2 adrenergic receptor (Homo sapiens) (UniProt P07550); conditions: Compound concentration 10.0 uM
[51] = target: Muscarinic acetylcholine receptor M2 (Homo sapiens) (UniProt P08172); conditions: Compound concentration 10.0 uM
[52] = target: Sigma non-opioid intracellular receptor 1 (Homo sapiens) (UniProt Q99720); conditions: Compound concentration 10.0 uM
Sequence of Sigma non-opioid intracellular receptor 1 (Homo sapiens) (Q99720 whole entry): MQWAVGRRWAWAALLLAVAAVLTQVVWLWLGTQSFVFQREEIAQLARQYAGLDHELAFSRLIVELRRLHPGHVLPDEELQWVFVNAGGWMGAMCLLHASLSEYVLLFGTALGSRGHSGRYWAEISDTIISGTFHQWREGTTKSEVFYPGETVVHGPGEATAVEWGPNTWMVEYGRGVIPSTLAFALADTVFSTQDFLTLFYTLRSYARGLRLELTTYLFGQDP

Sequence of Interleukin-1 receptor-associated kinase 4 (Q9NWZ3 whole entry): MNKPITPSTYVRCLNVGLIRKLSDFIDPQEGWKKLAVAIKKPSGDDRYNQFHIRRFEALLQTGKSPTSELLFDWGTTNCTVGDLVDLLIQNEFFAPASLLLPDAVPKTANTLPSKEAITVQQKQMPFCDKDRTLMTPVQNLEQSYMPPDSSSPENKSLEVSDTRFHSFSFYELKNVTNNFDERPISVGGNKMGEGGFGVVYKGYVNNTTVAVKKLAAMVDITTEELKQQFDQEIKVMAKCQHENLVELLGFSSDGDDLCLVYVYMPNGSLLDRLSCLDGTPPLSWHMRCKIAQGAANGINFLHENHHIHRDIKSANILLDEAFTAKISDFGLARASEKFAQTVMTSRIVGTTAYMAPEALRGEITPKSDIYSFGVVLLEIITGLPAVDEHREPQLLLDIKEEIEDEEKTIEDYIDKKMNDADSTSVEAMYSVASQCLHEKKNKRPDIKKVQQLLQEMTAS

With `CC(C)(O)[C@H](F)CN1Cc2cc(NC(=O)c3cnn4cccnc34)c(N3CCOCC3)cc2C1=O` the EC50 [1] was 3 nM (active), the IC50 [1] was 3.3 nM (active) and the inhibition [2] was 7.5%. It also gave an inhibition [3] of 23.5%, an inhibition [4] of 37.5% and an inhibition [5] of 8.5%. For the same compound, the inhibition [6] was 3.5%, the inhibition [7] was 7.5% and the inhibition [8] was 20.3%. For the same compound, the inhibition [9] was 25.3%, the inhibition [10] was -2% and the inhibition [11] was -5%. For the same compound, the inhibition [12] was 13%, the inhibition [13] was 23% and the inhibition [14] was -0%. For the same compound, the inhibition [15] was 13%, the inhibition [16] was 5.5% and the inhibition [17] was 7.8%. It also gave an inhibition [18] of 2.5%, an inhibition [19] of -4% and an inhibition [20] of 34.5%. For the same compound, the inhibition [21] was 10.5%, the inhibition [22] was 36.5% and the IC50 [23] was 680 nM. The inhibition ([23]; Compound concentration 1.0 uM) was 86.3%, the inhibition [24] was 9.5% and the inhibition [25] was 7.5%. For the same compound, the inhibition [26] was 13%, the inhibition [27] was 9% and the inhibition [28] was 46.5%. It also gave an inhibition [29] of 1.5%, an inhibition [30] of 18.5% and an inhibition [31] of -2.5%. It also gave an inhibition [32] of 9%, an inhibition [33] of 1.5% and an inhibition [34] of 37.5%. It also gave an IC50 [35] of 313 nM, an inhibition ([35]; Compound concentration 1.0 uM) of 71% and an inhibition [36] of 2.5%. For the same compound, the inhibition [37] was -6.5%, the inhibition [38] was -0% and the inhibition [39] was 4%. For the same compound, the inhibition [40] was 5.5%, the inhibition [41] was 1% and the inhibition [42] was -7.43%. It also gave an inhibition [43] of 84.1%, an inhibition [44] of -0.18% and an inhibition [45] of -2.71%. The inhibition [46] was 19.5%, the inhibition [47] was -5.24% and the inhibition [48] was 9.09%. For the same compound, the inhibition [49] was -0.98%, the inhibition [50] was 3.53% and the inhibition [51] was -9.33%. It also gave an inhibition [52] of 9.11%.
